In BigSolDB 2.1:

O=[N+]([O-])c1cn[nH]c1[N+](=O)[O-]
solubility (mole fraction)
Details	298.15 K	303.15 K	308.15 K	313.15 K	318.15 K	323.15 K	328.15 K	333.15 K	338.15 K
in anisole	0.043	0.058	0.0778	0.103	0.138	0.181	0.237	0.313	0.411
in benzene	0.00171	0.00211	0.00264	0.00317	0.00389	0.00482	0.00585	0.00742	0.00936
in chlorobenzene	0.0012	0.00147	0.0018	0.00218	0.00266	0.00328	0.00402	0.00494	0.00609
in isopropanol	0.388	0.413	0.441	0.472	0.509	0.547	0.588	0.642	0.7
in n-butanol	0.318	0.348	0.387	0.411	0.444	0.489	0.528	0.586	0.648
in toluene	0.00201	0.0024	0.00291	0.00345	0.00411	0.00499	0.00601	0.00725	0.00877
